# Source: patent US20110150836A1, “METHODS OF TREATING HBV AND HCV INFECTION” (Gilead Sciences, Inc., priority 2009, published 2011)
# Tested on: human peripheral blood mononuclear cells (PBMCs)
# Assay: Induction of cytokines in human PBMCs in vitro (Luminex/Upstate multi-plex)
# Format: cell-based
# Settings: 24 hours; for IFN-α concentration / IFN-β concentration / IFN-γ concentration / IL1-α concentration / IL1-β concentration / IL-1ra concentration / IL-6 concentration / IL-10 concentration / IL-12 concentration / TNF-α concentration: PBMC supernatant
# Method: Frozen human PBMCs were thawed and used to seed the wells of 96 well plates (7.5×10^5cells/well in 190 μL/well culture medium (CM)). The cells were incubated for 1 hour at 37° C. at a 5% CO2. […] The plates were incubated at 37° C., 5% CO2, for 24 hours, then centrifuged at 1200 rpm for 10 minutes. After centrifugation the supernatant was collected and stored at −80° C. The supernatant was assayed using Luminex and Upstate multi-plex kits for the presence of various cytokines.
smiles,measurement,setting,value
"CCCCOc1nc(N)c2nc(O)n(Cc3cccc(CN4CCCC4)c3)c2n1 [Compound A, 6-amino-2-butoxy-9-(3-(pyrrolidin-1-ylmethyl)benzyl)-9H-purin-8-ol]",production of cytokines in human PBMCs in vitro,"0.1, 0.01, 0.001 μM",stimulated the production of a range of cytokines
same,IFN-α concentration,Compound A 0.001 μM,208 pg/mL
same,IFN-β concentration,Compound A 0.001 μM,324 pg/mL
same,IFN-γ concentration,Compound A 0.001 μM,2099 pg/mL
same,IL1-α concentration,Compound A 0.001 μM,7 pg/mL
same,IL1-β concentration,Compound A 0.001 μM,138 pg/mL
same,IL-1ra concentration,Compound A 0.001 μM,3216 pg/mL
same,IL-6 concentration,Compound A 0.001 μM,27664 pg/mL
same,IL-10 concentration,Compound A 0.001 μM,735 pg/mL
same,IL-12 concentration,Compound A 0.001 μM,61 pg/mL
same,TNF-α concentration,Compound A 0.001 μM,82 pg/mL
same,IFN-α concentration,Compound A 0.01 μM,122 pg/mL
same,IFN-β concentration,Compound A 0.01 μM,170 pg/mL
same,IFN-γ concentration,Compound A 0.01 μM,4578 pg/mL
same,IL1-α concentration,Compound A 0.01 μM,94 pg/mL
same,IL1-β concentration,Compound A 0.01 μM,752 pg/mL
same,IL-1ra concentration,Compound A 0.01 μM,4530 pg/mL
same,IL-6 concentration,Compound A 0.01 μM,66284 pg/mL
same,IL-10 concentration,Compound A 0.01 μM,992 pg/mL
same,IL-12 concentration,Compound A 0.01 μM,386 pg/mL
same,TNF-α concentration,Compound A 0.01 μM,1449 pg/mL
same,IFN-α concentration,Compound A 0.1 μM,80 pg/mL
same,IFN-β concentration,Compound A 0.1 μM,97 pg/mL
same,IFN-γ concentration,Compound A 0.1 μM,5400 pg/mL
same,IL1-α concentration,Compound A 0.1 μM,280 pg/mL
same,IL1-β concentration,Compound A 0.1 μM,2836 pg/mL
same,IL-1ra concentration,Compound A 0.1 μM,4934 pg/mL
same,IL-6 concentration,Compound A 0.1 μM,93554 pg/mL
same,IL-10 concentration,Compound A 0.1 μM,1523 pg/mL
same,IL-12 concentration,Compound A 0.1 μM,773 pg/mL
same,TNF-α concentration,Compound A 0.1 μM,3665 pg/mL
